# Assay results reported in US10196345B2, “MAO-B selective inhibitor compounds, pharmaceutical compositions thereof and uses thereof” (The University of British Columbia, priority 2013, dated 2019).
# How the values were obtained:
# [1] = test system: rat periodontal disease model; conditions: cited from earlier work
# [2] = test system: Madin Darby canine kidney (MDCK-I) cells; assay: TEER in MDCK-I cells; format: cell-based; conditions: for 144-hour barrier (TEER) vs control: MDCK-I, treated at 72 hours; for effect on TEER (MAO A, B, AB inhibitors): no concentration given; for TEER, LPS+deprenyl vs control: MDCK-I cells, Transwell, LPS range, 40 μM deprenyl
# Experimental: In each case, TEER was measured every 48 hours after treatment.
# Transwell cultures were treated at 72 hours (T) post-cell plating.
# Transepithelial Resistance (TER) is a common method to screen for barrier integrity. […] Fluorescein isothiocyanate conjugated 10 kD dextran (Invitrogen™) will be added to the apical Transwell™ compartment, fixed, and examined for dextran permeation (Umeda et al., 2006).
# Amphiregulin (AR) is an EGFR binding ligand and may play a pivotal role in the previously described signaling axis (see FIGS. 15-17). […] (ii) GI [intestinal epithelial cell (IEC)] and (iii) classical [Madin-Darby canine kidney (MDCK-1)].
# [3] = test system: MAO activity in adipocytes; conditions: cited from earlier work
# AR protein secretion = assay: amphiregulin (AR) protein secretion, MDCK-I cells; format: cell-based, canine; conditions: no concentration given
# [4] = obese and non-obese rats; cited from earlier work
# [5] = test system: Porcine ligament epithelial (PLE) cells; assay: TEER, LPS-induced barrier loss, PLE cells; format: cell-based; conditions: Transwell, LPS challenge at 72 hours
# Experimental: (§1) In each case, TEER was measured every 48 hours after treatment. Statistically significant differences were identified.
# (§2) Transepithelial Resistance (TER) is a common method to screen for barrier integrity. […] For select compounds barrier integrity and protection is also measured using tracer studies because TER accuracy in examining TJ integrity has recently come into question (Van Itallie et al., 2008). Fluorescein isothiocyanate conjugated 10 kD dextran (Invitrogen™) will be added to the apical Transwell™ compartment, fixed, and examined for dextran permeation (Umeda et al., 2006). We expect control and deprenyl-treated cells with an intact barrier to maintain the tracer at the apical membrane region, whereas the breached monolayers will show tracer permeation between the cells.
# [6] = in vitro BBB permeability in MDCK-WT cells; conditions: dog, MDCK
# Description: Wildtype Madin-Darby canine cells (MDCK-WT) were used to predict CNS permeability of compounds PS-RG0103, PS-RG0216, PS-RG0245 and PS-AD0191. […] J Allergy Clin Immunol. 1990; 86(6 pt 2): p. 1025-8.
# Novel MAO B inhibitors selected based on the above screening program will be screened using an in vitro model of blood brain barrier (BBB). Madin-Darby canine kidney (MDCK-WT) and MDCK cells transfected with the human MDR1 gene (MDCK-MDR1) are well established in vitro models used to predict a compound's ability to permeate the blood brain barrier (BBB). […] Apparent permeability (Papp), Efflux ratio (Papp B-A/Papp A-B), as well as the Net flux ratio (Efflux ratioMDCK-MDR1/Efflux ratioMDCK-WT) can be calculated to identify compound BBB permeability and identify compounds that are substrates of P-gp.
# [7] = stability assay in mouse liver microsomes; conditions: after 60 minutes at room temperature
# [8] = mouse hepatocyte stability assay; conditions: after 60 minutes at room temperature
# [9] = test system: rat intestinal epithelial (IEC-6) cells; assay: TEER, LPS-induced barrier loss, IEC-6 cells; format: cell-based; conditions: Transwell, LPS challenge at 72 hours
# Experimental: as §1, §2
# [10] = test system: human intestinal microvascular endothelial cells (HIMEC); assay: IL-8, IL-6 and TNFα protein expression in LPS-treated HIMEC; format: cell-based; conditions: 1000 ng/mL LPS + 10 μM compound, 1 or 3 hrs
# Experimental: Human microvascular endothelial cells were seeded at 37500 cells/cm^2 on a fibronectin-coated polystyrene 96-well plate in MCDB 131 medium (#10372-019, Gibco™) containing 20% FBS. On day 2 after seeding, wells were replaced with fresh media containing 2.5% FBS. […] Supernatants of the treated cells were analyzed for pro- and anti-inflammatory cytokine proteins using the Human Proinflammatory 7-Plex Ultra-Sensitive Kit (K15008C, MSD) measured by the Sector Imager 2400A (MSD). Left panel: Absolute concentrations of IL-8, IL-6 and TNFα protein in supernatants of cells treated with control (media only) or increasing concentrations of LPS. Right panel: Absolute IL-8, IL-6 or TNFα concentrations induced or attenuated by 1000 ng/mL LPS±the novel MAO B inhibitors. Values were determined by subtracting supernatant cytokine concentrations of control from supernatant cytokine concentrations of treated cells. Results are expressed as mean±standard deviation (n=3). Statistical significance was determined using a one-way ANOVA and Tukey post-hoc test in SPSS (IBM) comparing control and LPS (left panel) or LPS and novel MAO B inhibitors (right panel). *p<0.05, **p<0.001
# C. rodentium infections = assay: seven-day C. rodentium infection model; format: in vivo
# recombinant human MAO-A = molecular target: T1, recombinant human MAO-A (Homo sapiens, UniProt P21397); assay: Cell-free Fluorescent Monoamine Oxidase A&B Detection Assay, MAO-A; format: biochemical; conditions: read-out: IC90 MAO-A (μM)
# T1 sequence (P21397 1-527): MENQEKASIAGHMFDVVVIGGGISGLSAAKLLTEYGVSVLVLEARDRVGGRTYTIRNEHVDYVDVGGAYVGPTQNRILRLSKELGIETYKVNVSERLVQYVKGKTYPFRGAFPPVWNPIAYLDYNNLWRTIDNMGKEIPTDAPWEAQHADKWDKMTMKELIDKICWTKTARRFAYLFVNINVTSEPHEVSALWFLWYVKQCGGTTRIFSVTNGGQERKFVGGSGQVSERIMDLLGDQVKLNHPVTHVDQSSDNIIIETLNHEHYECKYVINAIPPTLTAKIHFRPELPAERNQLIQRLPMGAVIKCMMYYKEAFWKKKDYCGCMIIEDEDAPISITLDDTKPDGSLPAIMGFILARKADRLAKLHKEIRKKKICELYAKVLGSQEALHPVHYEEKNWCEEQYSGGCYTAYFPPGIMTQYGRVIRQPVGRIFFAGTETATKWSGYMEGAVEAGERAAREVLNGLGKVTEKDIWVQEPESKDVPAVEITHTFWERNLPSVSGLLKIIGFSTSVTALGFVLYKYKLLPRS
# Experimental: The assay was repeated to confirm data.
# MAO B specific inhibitory activity and selectivity over MAO A is assayed using a commercial kit [Fluoro MAO A and B detection kit (Cell Technology Inc™)]. This kit uses a non-fluorescent detection reagent to measure H2O2 released from the conversion of an MAO A and MAO B substrate specific to its aldehyde. Furthermore, H2O2 oxidizes the detection reagent in a 1:1 stoichiometry to produce a fluorescent product (resorufin). […] This information is then provided to the medicinal chemists to help direct synthesis of subsequent iterations.
# [11] = test system: DSS induced colitis in C57BL/6 mice; assay: 3% DSS induced colitis, claudin-3 localization; format: in vivo; conditions: 3% DSS in drinking water, day 7, C57BL/6 mice
# Description: FIGS. 21A and B show a 3% DSS induced colitis and protects epithelial cell-cell claudin-3 localization. […] (A). […] (B). […] Increased cell infiltrate is evident in the DSS-treated animals by the DAPI (blue) staining.
# [12] = test system: IL-8 protein expression in Caco-2 cells; assay: IL-8 protein expression in LPS- and TNFα-treated Caco-2 cells; format: cell-based, human; conditions: Caco-2, 1 μg/mL LPS or 50 ng/mL TNFα + 20 μM compound, 4, 12 or 24 h
# Experimental: Caco-2 cells were seeded at 83300 cells/cm^2 on a polystyrene 96-well plate in DMEM medium (#10313-021, Gibco™) containing 10% FBS. On day 5 after seeding, wells were replaced with fresh media containing 2.5% FBS. […] Supernatants of the treated cells were analyzed for pro- and anti-inflammatory cytokine proteins using the Human Proinflammatory 7-Plex Ultra-Sensitive Kit™ (K15008C, MSD™) measured by the Sector Imager 2400A (MSD™). Left panel: Absolute concentrations of IL-8 protein in supernatants of cells treated with control (media only), 1 μg/mL LPS or 50 ng/mL TNFα. […] Values were determined by subtracting supernatant cytokine concentrations of control from supernatant cytokine concentrations of treated cells. Results are expressed as mean±standard deviation (n=3).
# [13] = stability assay in human liver microsomes; conditions: after 60 minutes at room temperature
# [14] = seven-day C. rodentium infection, preliminary
smiles,measurement,setting,value
NNCCc1ccccc1 [phenelzine],histological indicators of periodontal disease,"[1]; co-applied topically with LPS, rat",histological indicators of periodontal disease were reduced
same,"local epithelial cell proliferation and migration, alveolar bone loss, PMN infiltration and systemic H2O2","[1]; rat periodontal disease model, daily LPS",reduced
same,144-hour barrier (TEER) vs control,[2]; 5 μm inhibitor,increased over control
same,144-hour barrier (TEER) vs control,[2]; 40 μm inhibitor,increased over control
same,"effect on TEER (MAO A, B, AB inhibitors)",[2],increased TEER
same,MAO activity in adipocytes,[3],inhibit MAO activity in adipocytes
same,"effect on AR expression/secretion (MAO A, B, AB inhibitors)",AR protein secretion,reduced AR expression
same,MAO activity,[4],inhibited MAO activity
same,body weight gain,[4],diminished body weight gain
same,intra-abdominal adipose tissue,[4],reduced intra-abdominal adipose tissue
C#CCN(C)[C@H](C)Cc1ccccc1 [Deprenyl],"TEER, LPS+deprenyl vs control",[5],rescues LPS reduction of TEER
same,"TEER, LPS+deprenyl vs control",[5]; listed as deprenyl,significantly induced TEER above control
same,Papp,[6],44 ± 2.5 ×10⁻⁶ cm/s
same,compound remaining in mouse microsome,[7],less than 2.5%
same,"compound remaining, mouse hepatocyte stability",[8],less than 2.5%
same,"TEER, LPS+deprenyl vs control",[2],rescues LPS reduction of TEER
same,"TEER, LPS+deprenyl vs control",[2]; listed as deprenyl,significantly induced TEER above control
same,"TEER, co-treatment with H2O2","[2]; MDCK-I on Transwell membranes, H2O2",increased TEER significantly above the control
same,144-hour barrier (TEER) vs control,[2]; 5 μm inhibitor,increased over control
same,144-hour barrier (TEER) vs control,[2]; 40 μm inhibitor,increased over control
same,"effect on TEER (MAO A, B, AB inhibitors)",[2],increased TEER
same,"TEER, LPS+deprenyl vs control",[9],rescues LPS reduction of TEER
same,"TEER, LPS+deprenyl vs control",[9]; listed as deprenyl,significantly induced TEER above control
same,"IL-8, IL-6 and TNFα protein expression",[10],attenuation
same,bacterial growth rates,C. rodentium infections; C. rodentium,did not influence bacterial growth rates
same,TJ protein localization at the cell periphery,C. rodentium infections; [14],intact
same,hyperplastic phenotype,C. rodentium infections; [14],not apparent
same,IC90,recombinant human MAO-A,9.38 µM
same,claudin-3 localization,[11],better localized to epithelial cell-cell contacts
same,IL-8 protein expression,[12],attenuation of IL-8 protein expression
same,compound remaining in human microsome,[13],15%
